For this assay, the target named is T1, LdTOPII (Leishmania donovani, UniProt Q9XZN0).
T1 sequence (Q9XZN0 1-1236): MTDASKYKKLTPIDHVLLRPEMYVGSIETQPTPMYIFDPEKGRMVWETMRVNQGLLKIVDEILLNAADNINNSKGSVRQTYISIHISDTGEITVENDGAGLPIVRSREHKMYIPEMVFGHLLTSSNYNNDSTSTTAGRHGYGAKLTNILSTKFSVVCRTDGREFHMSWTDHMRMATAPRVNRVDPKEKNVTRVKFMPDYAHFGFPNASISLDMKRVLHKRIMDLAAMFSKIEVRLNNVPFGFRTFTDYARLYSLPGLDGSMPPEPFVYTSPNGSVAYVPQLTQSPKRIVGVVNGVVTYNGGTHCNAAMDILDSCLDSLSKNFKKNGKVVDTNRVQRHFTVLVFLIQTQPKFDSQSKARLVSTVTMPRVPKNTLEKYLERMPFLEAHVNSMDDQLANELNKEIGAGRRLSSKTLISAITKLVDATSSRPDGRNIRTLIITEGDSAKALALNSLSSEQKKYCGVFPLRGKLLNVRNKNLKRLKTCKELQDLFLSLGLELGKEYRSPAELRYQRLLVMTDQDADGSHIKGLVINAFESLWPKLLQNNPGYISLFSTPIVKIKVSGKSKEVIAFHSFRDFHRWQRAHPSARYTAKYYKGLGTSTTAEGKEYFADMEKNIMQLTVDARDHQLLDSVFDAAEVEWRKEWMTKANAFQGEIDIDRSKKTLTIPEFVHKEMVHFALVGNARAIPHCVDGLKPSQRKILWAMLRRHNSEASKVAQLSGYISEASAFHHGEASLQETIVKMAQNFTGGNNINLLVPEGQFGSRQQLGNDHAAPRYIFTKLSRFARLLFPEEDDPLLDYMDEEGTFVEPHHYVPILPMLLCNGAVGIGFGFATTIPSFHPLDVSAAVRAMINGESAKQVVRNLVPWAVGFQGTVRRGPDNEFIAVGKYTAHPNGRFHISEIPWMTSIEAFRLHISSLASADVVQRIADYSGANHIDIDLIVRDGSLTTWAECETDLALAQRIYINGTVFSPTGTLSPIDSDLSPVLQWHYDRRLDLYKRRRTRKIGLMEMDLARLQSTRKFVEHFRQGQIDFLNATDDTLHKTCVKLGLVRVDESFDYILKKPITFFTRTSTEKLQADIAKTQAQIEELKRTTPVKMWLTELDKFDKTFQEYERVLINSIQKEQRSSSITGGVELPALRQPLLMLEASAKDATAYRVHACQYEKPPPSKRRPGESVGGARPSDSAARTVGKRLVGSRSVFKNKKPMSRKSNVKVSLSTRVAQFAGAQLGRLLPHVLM
The settings on record: 2 mmol/L ATP, 30°C.

Structures are written as SMILES.

`Nc1ncnc2c1ncn2[C@@H]1O[C@H](COP(=O)(O)OP(=O)(O)OP(=O)(O)O)[C@@H](O)[C@H]1O` [ATP]: the “pyruvate kinase/lactate dehydrogenase coupled ATPase assay” value was “JVPH3 and JVPH4 did not interfere with LdTOPII-mediated ATP hydrolysis”.

For the origin of these results see paper PMC4186449 (Pharmacology Research & Perspectives, 2014).
